{
  "source": "patent EP0443996B1",
  "about": "“Esters of (R)(-)-carnitine and acyl (R)(-)-carnitines with beta-hydroxybutyric acid and pharmaceutical compositions containing them for inhibiting neuronal degeneration, liver proteolysis and for the treatment of coma” (Sigma-Tau Industrie Farmaceutiche Riunite S.p.A., priority 1990, dated 1991)",
  "key": {"post-oligaemic rats [1]": {"tested_on": "post-oligaemic rats", "assay": "Death rate after transient forebrain oligohaemia", "format": "in vivo, Sprague-Dawley (Iffa Credo) male rats", "method": "(§1) The study was conducted with a view to assessing the therapeutical effect of ST 687 administered i.p. to rats immediately after the effect of a transient forebrain oligohaemia in the experiment animals were detected. In particular, the propensity of post-oligaemic rats to develop conditioning was studied in a one-trial passive avoidance task. Concurrently, the neurologic deficit during a 3-day period following the ischaemic insult was assessed, and finally the extent of the oedema was assessed by measuring the water content of the cerebral tissue.\n(§2) In the experiments Sprague-Dawley (Iffa Credo) male rats weighing 230-250 g were used, that had been caged (5 rats/cage) under conditions of controlled temperature (22°C±1°C), 50% relative humidity and 12-hours dark-light cycle (light on from 8 a.m. to 8 p.m.). The rats were fed UAR (Epinay Orge, France) laboratory chow and had free access to tap water. The rats were caged for 5 days before surgery.\n(§3) Under light ether anesthesia, carotid arteries were isolated and loosely surrounded by a thread. Twenty-four hours later, reversible incomplete forebrain ischemia was produced by bilateral common carotid artery occlusion combined with sodium nitroprusside-induced arterial hypotension (1.1 mg/rat s.c.). Mean arterial blood pressure (MABP) was lowered and maintained nearby 6.6 kPa for 45 min. Then it gruadually returned to normal within the 60th minute when carotid occlusion was removed."}, "post-oligaemic rats [2]": {"tested_on": "post-oligaemic rats", "assay": "Cerebral oedema upon brain excision 77 hours post-oligohaemia", "format": "in vivo, Sprague-Dawley (Iffa Credo) male rats", "settings": "survivors", "method": "as §1, §2, §3\nImmediately after the last retention trial, i.e. 77 hours post-oligohaemia, rats were sacrificed by decapitation, their brains rapidly removed and macroscopically examined in terms of swelling. Brain water content was determined by the method wet weight/dry weight."}, "post-oligaemic rats [3]": {"tested_on": "post-oligaemic rats", "assay": "One-trial passive avoidance task (retention of conditioned response)", "format": "in vivo, Sprague-Dawley (Iffa Credo) male rats", "method": "as §1, §2, §3\nThe functional aspects of the cerebral ischemic injury were assessed by a one trial learning procedure (passive avoidance reaction) as originally described by Kurtz K. H. e Pearl J.: The effects of prior fear experience in acquired drive learning. J. Comp. Physiol, Psychol, 1960, 53 : 201-206, and more extensively developed by Buresova et al.: Effect of atropine on learning, extinction, retention and retrieval in rats. Psychopharmacologia, 1964, 5 : 255-263.\nFour hours after clipping-off untreated post-oligaemic rats were placed into an apparatus consisting of a large illuminated compartment (40 x 40 cm) connected by an opening to a small dark compartment (10 x 10 cm) with an electrified grid floor. The animals placed into the large compartment were allowed to explore the apparatus for three minutes. The latency to enter and the time spent in the small compartment were measured with a stop watch. Habituation to the experimental conditions was repeated 24 and 29 hours after ischemia. At the end of the third habituation trial, the opening between the two compartments was closed and the rat, placed into the small compartment, received intermittent electrical foot-shocks for one minute. The retention of the passive avoidance towards the small compartment was tested 24 and 48 hours after the last habituation trial i.e. 53 and 77 hours post-oligohaemia, respectively. The criterion used to determine whether an animal was conditioned was based upon the rat remaining in the large illuminated compartment for 180 sec. without entry into the small dark compartment."}, "[4]": {"tested_on": "acetaminophen (paracetamol)-induced hepatic damage", "assay": "Protection against acetaminophen (paracetamol)-induced hepatic damage, serum transaminases", "format": "in vivo, Male Wistar rats", "settings": "SGOT and SGPT in blood serum; 101 mg/kg body weight orally 1, 8 and 24 hours after paracetamol 1 g/kg per os; sacrifice at 32 hours; with respect to the control animals", "method": "Male Wistar rats weighing 200-250 g (15 rats/group) that had been keept fasting for at least 12 hours, were administered a single dose of paracetamol (1 g/kg body weight, per os). 100 g paracetamol were dissolved in 1000 ml of 5% (w/v) carboxymethylcellulose suspension in water. […] 101 mg ST 784/kg body weight were administered orally (as aqueous solution) 1, 8 and 24 hours, respectively, following paracetamol administration. The animals were sacrificed 32 hours following paracetamol administration.\nTransaminases (SGOT and SGPT) were measured in blood serum. ST 784 provoked a decrease in transaminases exceding 60% ([…]) with respect to the control animals."}},
  "data": [
    {"compound": "CC(=O)O[C@H](CC(=O)[O-])C[N+](C)(C)C", "note": "[Acetyl (R)(-)-carni-tine, acetyl (R)(-)-carnitine, reference compound]", "values": [
      {"measurement": "Death rate after 72 hours (%)", "setting": "post-oligaemic rats [1]; 12,5 mg. kg i.p. twice a day", "result": "33,3%"},
      {"measurement": "Death rate after 72 hours (%)", "setting": "post-oligaemic rats [1]; 25,0 mg. kg i.p. twice a day", "result": "41,2%"},
      {"measurement": "Death rate after 72 hours (%)", "setting": "post-oligaemic rats [1]; 50,0 mg. kg i.p. twice a day", "result": "50,0%"},
      {"measurement": "Incidence of cerebral oedema upon excision (3)", "setting": "post-oligaemic rats [2]; 12,5 mg. kg i.p. twice a day", "result": "80,0"},
      {"measurement": "Incidence of cerebral oedema upon excision (3)", "setting": "post-oligaemic rats [2]; 25,0 mg. kg i.p. twice a day", "result": "60,0"},
      {"measurement": "Incidence of cerebral oedema upon excision (3)", "setting": "post-oligaemic rats [2]; 50,0 mg. kg i.p. twice a day", "result": "90,0"},
      {"measurement": "Incidence of retention of conditioned response (%)", "setting": "post-oligaemic rats [3]; 12,5 mg. kg i.p. twice a day, + 53 h", "result": "80,0%"},
      {"measurement": "Incidence of retention of conditioned response (%)", "setting": "post-oligaemic rats [3]; 12,5 mg. kg i.p. twice a day, + 77 h", "result": "80,0%"},
      {"measurement": "Incidence of retention of conditioned response (%)", "setting": "post-oligaemic rats [3]; 25,0 mg. kg i.p. twice a day, + 53 h", "result": "60,0%"},
      {"measurement": "Incidence of retention of conditioned response (%)", "setting": "post-oligaemic rats [3]; 25,0 mg. kg i.p. twice a day, + 77 h", "result": "70,0%"},
      {"measurement": "Incidence of retention of conditioned response (%)", "setting": "post-oligaemic rats [3]; 50,0 mg. kg i.p. twice a day, + 53 h", "result": "70,0%"},
      {"measurement": "Incidence of retention of conditioned response (%)", "setting": "post-oligaemic rats [3]; 50,0 mg. kg i.p. twice a day, + 77 h", "result": "50,0%"}
    ]},
    {"compound": "ester of isovaleryl (R)(-)-carnitine chloride with (R,S)(±)-beta-hydroxybutyric acid [ST 687]", "values": [
      {"measurement": "Death rate after 72 hours (%)", "setting": "post-oligaemic rats [1]; 2,5 mg. kg i.p. twice a day", "result": "47,4%"},
      {"measurement": "Death rate after 72 hours (%)", "setting": "post-oligaemic rats [1]; 5,0 mg. kg i.p. twice a day", "result": "37,5%"},
      {"measurement": "Death rate after 72 hours (%)", "setting": "post-oligaemic rats [1]; 7,5 mg. kg i.p. twice a day", "result": "62,5%"},
      {"measurement": "Incidence of cerebral oedema upon excision (3)", "setting": "post-oligaemic rats [2]; 2,5 mg. kg i.p. twice a day", "result": "80,0"},
      {"measurement": "Incidence of cerebral oedema upon excision (3)", "setting": "post-oligaemic rats [2]; 5,0 mg. kg i.p. twice a day", "result": "50,0"},
      {"measurement": "Incidence of cerebral oedema upon excision (3)", "setting": "post-oligaemic rats [2]; 7,5 mg. kg i.p. twice a day", "result": "66,7"},
      {"measurement": "Incidence of retention of conditioned response (%)", "setting": "post-oligaemic rats [3]; 2,5 mg. kg i.p. twice a day, + 53 h", "result": "20,0%"},
      {"measurement": "Incidence of retention of conditioned response (%)", "setting": "post-oligaemic rats [3]; 2,5 mg. kg i.p. twice a day, + 77 h", "result": "40,0%"},
      {"measurement": "Incidence of retention of conditioned response (%)", "setting": "post-oligaemic rats [3]; 5,0 mg. kg i.p. twice a day, + 53 h", "result": "60,0%"},
      {"measurement": "Incidence of retention of conditioned response (%)", "setting": "post-oligaemic rats [3]; 5,0 mg. kg i.p. twice a day, + 77 h", "result": "60,0%"},
      {"measurement": "Incidence of retention of conditioned response (%)", "setting": "post-oligaemic rats [3]; 7,5 mg. kg i.p. twice a day, + 53 h", "result": "53,3%"},
      {"measurement": "Incidence of retention of conditioned response (%)", "setting": "post-oligaemic rats [3]; 7,5 mg. kg i.p. twice a day, + 77 h", "result": "66,7%"}
    ]},
    {"compound": "CC(CC(=O)O)OC(=O)CC(O)C[N+](C)(C)C", "note": "(racemic) [ST 784, ester of R(-)-carnitine chloride with R,S(±)beta-hydroxybutyric acid]", "values": [
      {"measurement": "decrease in transaminases", "setting": "[4]", "result": "> 60", "unit": "%"}
    ]}
  ]
}
